Laboratory results as given in the Biogen ADME set (Fang et al. 2023).
≈ marks a conversion by molar mass, not a printed value.

Conditions: for aqueous solubility: pH 6.8

| MDR1-MDCK efflux ratio | intrinsic clearance, human liver microsomes [mL/min/kg] | intrinsic clearance, rat liver microsomes [mL/min/kg] | aqueous solubility [µg/mL] | fraction unbound, human plasma | SMILES |
| --- | --- | --- | --- | --- | --- |
| 4.21 | 582 | 3140 | 39.8 (≈ 99.8 µM) | – | COc1ccc(OC)c(S(=O)(=O)Nc2cccc(CCc3ccccn3)c2)c1 |
| 22.8 | 150 | 2010 | – | – | O=C(c1cn(Cc2cncn2Cc2ccc(Br)cc2)cc1-c1cccc2ccccc12)N1CCOCC1 |
| 0.594 | ≤ 4.74 | ≤ 10.7 | 21.5 (≈ 102 µM) | – | Clc1ccc(NCc2ccoc2)nn1 |
| 0.507 | – | – | 0.19 (≈ 0.727 µM) | – | N#Cc1ccc(COc2cnc3ccccc3n2)cc1 |
| 0.711 | 31.2 | 835 | – | – | CCN(CC)C(=O)CSCc1cncc(F)c1 |
| 38.3 | – | – | 0.9 (≈ 1.7 µM) | – | CS(=O)(=O)c1ccc(-c2nnc(/C=C/c3nnc(-c4ccc(C#N)cc4)o3)n2-c2ccccc2Cl)nc1 |
| 2.16 | 155 | 790 | 6.94 (≈ 15.8 µM) | – | CCOC(=O)C1(Cc2cc(-c3ccc(F)cc3)no2)CCN(Cc2ccccc2O)CC1 |
| – | 7.31 | – | – | – | NC(=O)c1noc([C@@H](CCCC2CCCCC2)CC(=O)NO)n1 |
| 11.5 | 67.6 | 274 | – | – | CC(=O)N1c2ccc(S(=O)(=O)Nc3cccc(-c4cnco4)c3)cc2CC1C (centres undefined) |
| 1.14 | 21 | 146 | – | – | CCCn1cc(CN2CCC(c3nc(N(C)C)no3)CC2)cn1 |
| 0.676 | 37.6 | 14.3 | – | – | O=C(Nc1cncc2ccccc12)c1ncccn1 |
| – | 43.4 | 814 | 40.6 (≈ 117 µM) | – | COc1ccc(/C=C/C(=O)c2c(C)nc3ccccc3c2N)c(OC)c1 |
| 5.52 | – | – | 0.35 (≈ 0.714 µM) | 0.00025 | CCCS(=O)(=O)Nc1ccc(F)c(C(=O)c2c[nH]c3ncc(-c4ccc(Cl)cc4)cc23)c1F |
| 0.589 | 95.6 | 537 | 1.75 (≈ 5.96 µM) | – | Cc1ccccc1CSc1ccc(-c2ccccn2)nn1 |
| – | ≤ 4.74 | 17.7 | – | – | Cc1ccccc1S(=O)(=O)N[C@@H]1CC[C@@H](O)[C@@H]1O |
| 6.03 | 51.7 | 518 | – | – | O=C(Nc1cn(CCOCC(F)(F)F)nc1-c1ccccn1)c1coc(-c2cn[nH]c2)n1 |
| 4.1 | ≤ 4.74 | 28.2 | 67.2 (≈ 218 µM) | – | Cn1cc(NC(=O)[C@@H]2CCCCN2C(=O)OC(C)(C)C)cn1 |
| 6.01 | 106 | 875 | – | – | COc1ccc(Cl)cc1-c1cccc(C(=O)NCCN2CCCC2=O)c1 |
| – | – | – | 69.4 (≈ 247 µM) | – | Cc1cc(NC(=O)CN(C)c2c(F)cccc2F)on1 |
| – | 183 | 855 | 48 (≈ 179 µM) | – | CCc1cnc(CCNc2cncc(Cl)n2)s1 |
| 7.24 | ≤ 4.74 | 32.1 | 55.7 (≈ 227 µM) | – | Cc1noc(C)c1CCC(=O)Nc1cccnc1 |
| 0.642 | – | – | 0.27 (≈ 0.895 µM) | – | Fc1ccc(-n2cc(/C=C/c3ccnnc3)nn2)cc1Cl |

| MDR1-MDCK efflux ratio | intrinsic clearance, human liver microsomes [mL/min/kg] | intrinsic clearance, rat liver microsomes [mL/min/kg] | aqueous solubility [µg/mL] | fraction unbound, human plasma | SMILES |
| --- | --- | --- | --- | --- | --- |
| – | 430 | 3580 | 19.5 (≈ 46.2 µM) | 0.0181 | CC(=O)N1CCN(c2c(Cl)cccc2NC(=O)COc2ccccc2Cl)CC1 |
| 2.56 | 90.3 | ≤ 10.7 | 31.8 (≈ 85.5 µM) | – | O=C(NC1=NS(=O)(=O)c2ccccc21)c1cc(-c2ccc(F)cc2)no1 |
| 33.3 | 43.9 | 832 | 54.6 (≈ 154 µM) | – | Cc1cc(C)nc(-n2nc(C)c(CC(=O)NC3CCCCCC3)c2C)n1 |
| – | 153 | 817 | – | – | C[C@H](Cn1nc2c(cc1=O)CCCCC2)NC(=O)Cc1cccs1 |
| 24.3 | ≤ 4.74 | 50.4 | 44.6 (≈ 109 µM) | – | CC(C)c1cc(C(=O)N2Cc3ccc(CN4CCN(C)CC4)cc3C2)c(O)cc1O |
| 11.7 | 7.14 | 44.7 | – | – | C[C@]1(O)CN(C(=O)Cn2cnc3ccccc3c2=O)CC[C@@H]1Oc1ccccc1 |
| – | – | – | 20.2 (≈ 101 µM) | – | Cc1nn(-c2ccccc2)c(C)c1CN |
| 5.28 | 16.7 | 106 | 95.5 (≈ 233 µM) | – | COc1cccc(OCCCn2cncc2-c2cc3c(cc2OC)OCCCO3)c1 |
| 0.744 | 36.2 | 799 | 47.3 (≈ 134 µM) | – | Cc1cc(CNc2cc(C(=O)N(C)C)ccn2)sc1Br |
| 0.442 | 22.6 | 796 | – | – | O=c1c2ccncc2ncn1[C@H]1CCN(Cc2ccccc2)C1 |
| – | – | – | 0.3 (≈ 0.921 µM) | – | Cn1c(NC(=O)C2CC2c2ccc(Cl)cc2)nc2ccccc21 (centres undefined) |
| 0.329 | – | – | 0.52 (≈ 1.93 µM) | – | Cc1cccc2sc(NC(=O)c3cccnc3)nc12 |
| 16.3 | ≤ 4.74 | ≤ 10.7 | 38 (≈ 155 µM) | – | CC(C)C(=O)Nc1ncn(Cc2cccnc2)n1 |
| – | – | – | 56.4 (≈ 160 µM) | – | COc1ccc(S(=O)(=O)N2CCC(N3CCC(C)CC3)CC2)cc1 |
| 2.71 | ≤ 4.74 | 63.5 | – | – | COCc1noc(CNC(=O)N(C)[C@@H](C)c2ccccc2)n1 |
| 0.562 | 22.1 | 2210 | 54.7 (≈ 272 µM) | – | N#Cc1ccccc1N1CCC(N)CC1 |
| 37.1 | 73.9 | 275 | – | 0.0946 | CC#CC(=O)N1CCC[C@@H]1c1nc(-c2ccc(C(=O)Nc3ccccn3)cc2)c2c(N)nccn12 |
| 1.22 | 975 | 3430 | – | – | Cc1cc(C#N)cc(N2CCc3c(ncn3CCc3ccccc3)C2)n1 |
| 0.352 | 36.5 | 207 | 22.6 (≈ 91.1 µM) | – | Cc1cccc2sc(NC(=O)C(C)(C)C)nc12 |
| 0.485 | 14.4 | – | – | 0.00124 | Cc1nnc(-c2ccc(N3CCC(Oc4ccccc4C(F)(F)F)CC3)nn2)s1 |
| 1.61 | ≤ 4.74 | 28 | – | – | NC[C@@](O)(c1ccc(Cl)cc1)c1ccc(-c2cn[nH]c2)cc1 |
